The values below come from US4289777A, “Quinolonecarboxylic acid derivatives and pharmaceutical preparations thereof for treatment of an allergic disease of the respiratory tract” (Schering, Aktiengesellschaft, priority 1978, dated 1981).

≈ marks a conversion by molar mass, not a printed value. Structures can show the parent of a compound that is named as a salt. Where two headings read alike, the source gives them in different places. Some results are limits rather than exact numbers.

One assay has as its system mast cells of the lungs. Particulars: upon inhalation; J. Med. Chem. 15: 583 [1972]; cited from earlier work.
For the next assay, the system named is carrageenin test. The assay is described as follows: carrageenin test, antiinflammatory effect. The assay is classed as in vivo. An excerpt: The inflammation-inhibitory effect can be measured by the carrageenin test (Winter, C. A., E. A. Risley and G. W. Nuss, Proc. Soc. Exp. Biol. Med. 111: 544-547 [1962]).
The test system of assay [1] is passive cutaneous anaphylaxis in rats (PCA), mediator liberation. Put plainly: passive cutaneous anaphylaxis in rats (PCA), inhibition of allergic reaction. In kind it is in vivo. To be noted: iv, rat PCA, i.v. How it is done:
For this purpose, rats are passively sensitized by the intracutaneous injection of various dilutions (1:8 and 1:16) of a standardized IgE-containing hyperimmune serum. After 48 hours, the compound to be tested, dissolved as the sodium salt in a physiological NaCl solution, and ovalbumin as the allergen, combined with a dye to better measure the local allergic reaction, are administered intravenously.
The measurement determines the inhibition of the allergic reaction in the presence of the test compound as compared with the allergic reaction without the inhibiting agent.

In another assay the test system is Diplococcus pneumoniae. The assay is described as follows: in vitro series dilution test, antibacterial effect. Particulars: Streptococcus pneumoniae, read-out: Minimum Inhibitory Concentration. The assay is classed as cell-based. An excerpt:
(§1) The antibacterial effect can be measured in vitro in a series dilution test.

In assay [2] the test system is Staphylococcus aureus 30-107. The assay is described as above. In kind it is cell-based. To be noted: 30107; Staphylococcus aureus 30-107, in vitro; read-out: Minimum Inhibitory Concentration.
Excerpt: as §1

The subject of assay [3] is Staphylococcus aureus 30-109. The assay is described as above. In kind it is cell-based. Particulars: 30109; Staphylococcus aureus 30-109, in vitro; read-out: Minimum Inhibitory Concentration.
Excerpt: as §1

The test system of assay [4] is Staphylococcus aureus 30-2. The assay is described as above. In kind it is cell-based. To be noted: 302; Staphylococcus aureus 30-2, in vitro; read-out: Minimum Inhibitory Concentration.
Excerpt: as §1

Assay [5] deals with Staphylococcus aureus 30-3. Described as above. To be noted: 303; Staphylococcus aureus 30-3, in vitro; read-out: Minimum Inhibitory Concentration. The assay is classed as cell-based.
Excerpt: as §1

Assay [6] concerns Staphylococcus aureus 30-53. The description is as above. The assay is classed as cell-based. To be noted: 3053; Staphylococcus aureus 30-53, in vitro; read-out: Minimum Inhibitory Concentration.
Excerpt: as §1

Assay [7] has as its system Staphylococcus aureus 30-64. Described as above. The assay is classed as cell-based. To be noted: 3064; Staphylococcus aureus 30-64, in vitro; read-out: Minimum Inhibitory Concentration.
Excerpt: as §1

Assay [8] has as its system Staphylococcus aureus 30-8. The description is as above. In kind it is cell-based. To be noted: 308; Staphylococcus aureus 30-8, in vitro; read-out: Minimum Inhibitory Concentration.
Excerpt: as §1

For assay [9], the system named is Diplococcus pneumoniae and a series of strains of Staphylococcus aureus. The assay is described as follows: in vitro series dilution test, antibacterial effect (summary over all bacteria). The assay is classed as cell-based. To be noted: in words.
Excerpt: as §1

[10] abbreviates: IgE serum dilution 1:8, dissolved as the sodium salt, read-out: % Inhibition, IgE 1:8.
[11] abbreviates: IgE serum dilution 1:16, dissolved as the sodium salt, read-out: % Inhibition, IgE 1:16.

`O=C(O)c1cc(=O)c2c(OCC(O)COc3cccc4oc(C(=O)O)cc(=O)c34)cccc2o1` [sodium salt of cromoglycic acid]: the “inhibition of liberation of mediators triggering bronchoconstriction, such as histamine and SRS-A” value with mast cells of the lungs is “inhibit the liberation of mediators triggering bronchoconstriction”.
As a reminder, the % Inhibition is the relative decrease from the control value, in per cent. A lower % Inhibition goes with a weak effect. As for “1,3-Bis(1-ethoxy-3-carboxy-1,4-dihydro-4-oxo-7-quinolyloxy)-2-propanol”, the “% Inhibition” value with carrageenin test (i.v., 10 mg./kg.) is on record as 44%; in the assay on carrageenin test (p.o., 75 mg./kg.) it was 28%.
What is called inhibition is the share of the control response that was lost under treatment. `CCn1cc(C(=O)O)c(=O)c2ccc(OCC(O)COc3ccc4c(=O)c(C(=O)O)cn(CC)c4c3)cc21` [1,3-Bis(1-ethyl-3-carboxy-1,4-dihydro-4-oxo-7-quinolyloxy)-2-propanol]: the inhibition at 5 mg/kg stood at 59% in assay [1] (setting [10]) and 69% in assay [1] (setting [11]). Also, the inhibition at 10 mg/kg was 84% in assay [1] (setting [10]) and 90% in assay [1] (setting [11]). In addition, the MIC in the assay with Diplococcus pneumoniae was determined as 50 µg/mL (≈ 95.7 µM); in assay [2], 50 µg/mL (≈ 95.7 µM); in assay [3], 25 µg/mL (≈ 47.8 µM); in assay [4], 25 µg/mL (≈ 47.8 µM); in [5], 12.5 µg/mL (≈ 23.9 µM); in assay [6], 50 µg/mL (≈ 95.7 µM). In addition, the MIC in [7] was 50 µg/mL (≈ 95.7 µM); in assay [8] it was 12.5 µg/mL (≈ 23.9 µM).
With `Cn1cc(C(=O)O)c(=O)c2ccc(OCC(O)COc3ccc4c(=O)c(C(=O)O)cn(C)c4c3)cc21` [1,3-Bis(3-carboxy-1,4-dihydro-1-methyl-4-oxo-7-quinolyloxy)-2-propanol], the inhibition at 5 mg/kg worked out at 62% in assay [1] (setting [10]) and 69% in assay [1] (setting [11]).
Consider `CCCCn1cc(C(=O)O)c(=O)c2ccc(OCC(O)COc3ccc4c(=O)c(C(=O)O)cn(CCCC)c4c3)cc21` [1,3-Bis(1-butyl-3-carboxy-1,4-dihydro-4-oxo-7-quinolyloxy)-2-propanol], for which the figures for the inhibition at 10 mg/kg in assay [1] (setting [10]) and in assay [1] (setting [11]) were 71% and 85%, respectively.
Take `O=C(O)c1cc(=O)c2c(OCC(O)COc3cccc4oc(C(=O)O)cc(=O)c34)cccc2o1` [Cromoglycic Acid, reference compound]: the figures for the inhibition at 5 mg/kg in assay [1] (setting [10]) and in assay [1] (setting [11]) were 63% and 67%, respectively. The inhibition at 10 mg/kg in assay [1] (setting [10]) worked out at 60%; in assay [1] (setting [11]), 84%; in the assay on carrageenin test (iv, 10 mg./kg.) it was 10%. In the assay with carrageenin test (in words), the antiinflammatory activity result is reported as “only an extremely weak efficacy, or even no corresponding efficacy at all”. Moreover, the inhibition at 75 mg/kg in the assay with carrageenin test (po, 75 mg./kg.) was 0%. Besides, the MIC (in the assay on Diplococcus pneumoniae; in assay [2]; in assay [3]; in assay [4]; in [5]; in assay [6]) was above 100 µg/mL throughout. The MIC in assay [7] and in [8] was above 100 µg/mL throughout. For the same molecule, the antibacterial activity entry in [9] is “ineffective against all bacteria investigated”.
